Results reported in US20050197350A1, “Novel quinoline, tetrahydroquinazoline, and pyrimidine derivatives and methods of treatment related to the use thereof” (TAISHO PHARMACEUTICAL CO., LTD., priority 2003, published 2005).

System: MCH receptors
Assay: MCH receptor activity class (method not given)
[1] = class by percent of control at 10^-7 M or IC50
[2] = class by percent of control at 10^−7 M or IC50
[3] = MCH receptor, class by percent of control at 10^-7 M or IC50
[4] = class 1-3 by percent of control at 10^-7 M or IC50
[5] = activity class per percent of control at 10^-7 M or IC50

SMILES: Cc1cccc(CNC[C@H]2CC[C@@H](Nc3nccc(N(C)C)n3)CC2)c1 [compound 1305]
- class [1]: 3 (Class 3 The value of percent of control at 10^−7 M was more than 60% or the value of IC50 was more than 200 nM.)

SMILES: COc1ccccc1C(=O)N[C@H]1CC[C@@H](Nc2nc(C)c(C)c(N(C)C)n2)CC1 [compound 2848, N-(cis-4-{[4-(dimethylamino)-5,6-dimethylpyrimidin-2-yl]amino}cyclohexyl)-2-methoxybenzamide]
- class [2]: 2 (Class 2: The value of percent of control at 10^−7 M was from 40% to 60% or the value of IC′50 was from 50 nM to 200 nM.)

SMILES: CN(C)c1cc(N[C@H]2CC[C@@H](CNC(=O)c3ccc4c(c3)OCO4)CC2)nc2ccccc12 [compound 174]
- class [3]: 3 (Class 3 The value of percent of control at 10^−7 M was more than 60% or the value of IC50 was more than 200 nM.)

SMILES: CN(C)c1nc(N[C@H]2CC[C@@H](CNC(=O)c3cc(F)cc(F)c3)CC2)nc2c1CCCC2 [compound 596]
- class [4]: 3 (Class 3 The value of percent of control at 10^−7 M was more than 60% or the value of IC50 was more than 200 nM.)

SMILES: CN(C)c1cc(N[C@H]2CC[C@@H](NC(=O)c3cncc(Br)c3)CC2)nc2ccccc12 [compound 88]
- class [3]: 3 (Class 3 The value of percent of control at 10^−7 M was more than 60% or the value of IC50 was more than 200 nM.)

SMILES: CN(C)c1cc(N[C@H]2CC[C@@H](CNCc3cc(C(F)(F)F)ccc3F)CC2)nc2ccccc12 [compound 1153]
- class [5]: 3 (Class 3 The value of percent of control at 10^−7 M was more than 60% or the value of IC50 was more than 200 nM.)

SMILES: COc1cc(Cl)ccc1CNC[C@H]1CC[C@@H](Nc2cc(N(C)C)c3ccccc3n2)CC1 [compound 1475]
- class [1]: 3 (Class 3 The value of percent of control at 10^−7 M was more than 60% or the value of IC50 was more than 200 nM.)

SMILES: CN(C)c1ccnc(N[C@H]2CC[C@@H](NC(=O)c3cc(C(C)(C)C)nn3Cc3ccccc3)CC2)n1 [compound 303]
- class [1]: 2 (Class 2: The value of percent of control at 10^−7 M was from 40% to 60% or the value of IC′50 was from 50 nM to 200 nM.)

SMILES: Cc1nc(N[C@H]2CC[C@@H](NC(=O)c3cccc(Cl)c3)CC2)nc(N(C)C)c1C [compound 2838, 3-chloro-N-(cis-4-{[4-(dimethylamino)-5,6-dimethylpyrimidin-2-yl]amino}cyclohexyl)benzamide]
- class [2]: 1 (Class 1: The value of percent of control at 10^−7 M was less than 40% or the value of IC50 was less than 50 nM.)

SMILES: CN(C)c1nc(N[C@H]2CC[C@@H](NC(=O)Cc3ccccc3C(=O)Nc3ccc(Cl)cc3Cl)CC2)nc2c1CCCC2 [compound 999]
- class [5]: 3 (Class 3 The value of percent of control at 10^−7 M was more than 60% or the value of IC50 was more than 200 nM.)

SMILES: Cc1cc(C(=O)NC[C@H]2CC[C@@H](Nc3nccc(N(C)C)n3)CC2)c(C(F)(F)F)o1 [compound 415]
- class [4]: 3 (Class 3 The value of percent of control at 10^−7 M was more than 60% or the value of IC50 was more than 200 nM.)

SMILES: CCCCCC(=O)N[C@H]1CC[C@@H](Nc2nccc(N(C)C)n2)CC1 [compound 258]
- class [1]: 3 (Class 3 The value of percent of control at 10^−7 M was more than 60% or the value of IC50 was more than 200 nM.)

SMILES: Cc1cc(C)c(C(=O)NC[C@H]2CC[C@@H](Nc3nc4c(c(N(C)C)n3)CCCC4)CC2)c(C)c1 [compound 666]
- class [1]: 2 (Class 2: The value of percent of control at 10^−7 M was from 40% to 60% or the value of IC′50 was from 50 nM to 200 nM.)

SMILES: Cc1cnc(N[C@H]2CC[C@@H](NC(=O)c3cccc(F)c3)CC2)nc1N(C)C [compound 2897, N-(cis-4-{[4-(dimethylamino)-5-methylpyrimidin-2-yl]amino}cyclohexyl)-3-fluorobenzamide]
- class [2]: 1 (Class 1: The value of percent of control at 10^−7 M was less than 40% or the value of IC50 was less than 50 nM.)

SMILES: COc1ccc(CNC[C@H]2CC[C@@H](Nc3nccc(N(C)C)n3)CC2)c2ccccc12 [compound 1247]
- class [1]: 1 (Class 1: The value of percent of control at 10^−7 M was less than 40% or the value of IC50 was less than 50 nM.)

SMILES: Cc1ccccc1C(=O)NC[C@H]1CC[C@@H](Nc2nc3c(c(N(C)C)n2)CCCC3)CC1 [compound 658]
- class [1]: 3 (Class 3 The value of percent of control at 10^−7 M was more than 60% or the value of IC50 was more than 200 nM.)

SMILES: CN(C)c1ccnc(N[C@H]2CC[C@@H](NC(=O)C(c3ccccc3)c3ccccc3)CC2)n1 [compound 250, N-(cis-4-{[4-(dimethylamino)pyrimidin-2-yl]amino}cyclohexyl)-2,2-diphenylacetamide]
- class [1]: 2 (Class 2: The value of percent of control at 10^−7 M was from 40% to 60% or the value of IC′50 was from 50 nM to 200 nM.)

SMILES: CN(C)c1cc(N[C@H]2CC[C@@H](NC(=O)NCc3ccc(Br)cc3)CC2)nc2ccccc12 [compound 2153]
- class [1]: 3 (Class 3 The value of percent of control at 10^−7 M was more than 60% or the value of IC50 was more than 200 nM.)

SMILES: CC(C)c1cc(Br)c(NC(=O)N[C@H]2CC[C@@H](Nc3nc4c(c(N(C)C)n3)CCCC4)CC2)c(Br)c1 [compound 1732]
- class [1]: 3 (Class 3 The value of percent of control at 10^−7 M was more than 60% or the value of IC50 was more than 200 nM.)

SMILES: CCOc1cc(CNC[C@H]2CC[C@@H](Nc3nccc(N(C)C)n3)CC2)ccc1O [compound 1280]
- class [1]: 2 (Class 2: The value of percent of control at 10^−7 M was from 40% to 60% or the value of IC′50 was from 50 nM to 200 nM.)

SMILES: COc1ccc(CN[C@H]2CC[C@@H](Nc3nccc(N(C)C)n3)CC2)c(OC)c1 [compound 1214]
- class [1]: 3 (Class 3 The value of percent of control at 10^−7 M was more than 60% or the value of IC50 was more than 200 nM.)

SMILES: CN(C)c1cc(N[C@H]2CC[C@@H](NC(=O)c3cccc(C(=O)c4ccccc4)c3)CC2)nc2ccccc12 [compound 733]
- class [1]: 3 (Class 3 The value of percent of control at 10^−7 M was more than 60% or the value of IC50 was more than 200 nM.)

SMILES: CCOc1ccccc1C(=O)NC[C@H]1CC[C@@H](Nc2nc3c(c(N(C)C)n2)CCCC3)CC1 [compound 634]
- class [1]: 3 (Class 3 The value of percent of control at 10^−7 M was more than 60% or the value of IC50 was more than 200 nM.)

SMILES: CC(C)c1cccc(C(C)C)c1NC(=S)N[C@H]1CC[C@@H](Nc2nc3c(c(N(C)C)n2)CCCC3)CC1 [compound 2002]
- class [3]: 3 (Class 3 The value of percent of control at 10^−7 M was more than 60% or the value of IC50 was more than 200 nM.)

SMILES: COc1ccccc1/C=C/CN[C@H]1CC[C@@H](Nc2nc3c(c(N(C)C)n2)CCCC3)CC1 [compound 1354]
- class [1]: 3 (Class 3 The value of percent of control at 10^−7 M was more than 60% or the value of IC50 was more than 200 nM.)

SMILES: CN(C)c1cc(N[C@H]2CC[C@@H](CNCc3ccc(N(C)CCC#N)cc3)CC2)nc2ccccc12 [compound 1202]
- class [1]: 3 (Class 3 The value of percent of control at 10^−7 M was more than 60% or the value of IC50 was more than 200 nM.)

SMILES: CN(C)c1nc(N[C@H]2CC[C@@H](NC(=O)C(CC(=O)c3ccc(C(C)(C)C)cc3)c3cn(C)c4ccccc34)CC2)nc2c1CCCC2 (relative stereo) [compound 997]
- class [5]: 3 (Class 3 The value of percent of control at 10^−7 M was more than 60% or the value of IC50 was more than 200 nM.)

SMILES: CN(C)c1nc(N[C@H]2CC[C@@H](CNC(=O)c3cccc(C#N)c3)CC2)nc2c1CCCC2 [compound 591]
- class [4]: 3 (Class 3 The value of percent of control at 10^−7 M was more than 60% or the value of IC50 was more than 200 nM.)

SMILES: CN(C)c1ccnc(N[C@H]2CC[C@@H](CNC(=O)Cc3ccccc3Br)CC2)n1 [compound 425]
- class [4]: 2 (Class 2: The value of percent of control at 10^−7 M was from 40% to 60% or the value of IC′50 was from 50 nM to 200 nM.)

SMILES: COc1ccccc1C(=O)N[C@H]1CC[C@@H](Nc2ncc(C)c(N(C)C)n2)CC1 [compound 2910]
- class [2]: 3 (Class 3 The value of percent of control at 10^−7 M was more than 60% or the value of IC50 was more than 200 nM.)

SMILES: Cc1oc(-c2ccccc2)cc1CNC[C@H]1CC[C@@H](Nc2nc3c(c(N(C)C)n2)CCCC3)CC1 [compound 1434]
- class [1]: 3 (Class 3 The value of percent of control at 10^−7 M was more than 60% or the value of IC50 was more than 200 nM.)

SMILES: CCn1c2ccccc2c2cc(CNC[C@H]3CC[C@@H](Nc4nc5c(c(N(C)C)n4)CCCC5)CC3)ccc21 [compound 1394]
- class [1]: 3 (Class 3 The value of percent of control at 10^−7 M was more than 60% or the value of IC50 was more than 200 nM.)

SMILES: Cc1cc(Cl)ccc1NC(=S)N[C@H]1CC[C@@H](Nc2cc(N(C)C)c3ccccc3n2)CC1 [compound 2286]
- class (MCH receptor activity class 1-3 (percent of control at 10^-7 M or IC50)): 3 (Class 3 The value of percent of control at 10^−7 M was more than 60% or the value of IC50 was more than 200 nM.)

SMILES: Cc1ccc(C2(C(=O)N[C@H]3CC[C@@H](Nc4ncc(C)c(N(C)C)n4)CC3)CC2)cc1 [compound 2873]
- class [2]: 1 (Class 1: The value of percent of control at 10^−7 M was less than 40% or the value of IC50 was less than 50 nM.)

SMILES: CN(C)c1ccnc(N[C@H]2CC[C@@H](CNC(=O)Cc3ccc(Cl)cc3)CC2)n1 [compound 373]
- class [1]: 2 (Class 2: The value of percent of control at 10^−7 M was from 40% to 60% or the value of IC′50 was from 50 nM to 200 nM.)

SMILES: CCOc1ccc(Br)cc1CNC[C@H]1CC[C@@H](Nc2cc(N(C)C)c3ccccc3n2)CC1 [compound 1166]
- class [1]: 3 (Class 3 The value of percent of control at 10^−7 M was more than 60% or the value of IC50 was more than 200 nM.)

SMILES: COC(=O)[C@H](Cc1ccccc1)NC(=O)N[C@H]1CC[C@@H](Nc2nc3c(c(N(C)C)n2)CCCC3)CC1 (relative stereo) [compound 1705]
- class (activity class 1-3: percent of control at 10^-7 M or IC50): 3 (Class 3 The value of percent of control at 10^−7 M was more than 60% or the value of IC50 was more than 200 nM.)

SMILES: CN(C)c1nc(N[C@H]2CC[C@@H](NC(=O)NCc3ccccc3F)CC2)nc2c1CCCC2 [compound 1713]
- class [1]: 2 (Class 2: The value of percent of control at 10^−7 M was from 40% to 60% or the value of IC′50 was from 50 nM to 200 nM.)

SMILES: COc1ccc(CCNC(=S)N[C@H]2CC[C@@H](Nc3nc4c(c(N(C)C)n3)CCCC4)CC2)cc1OC [compound 1997]
- class [3]: 3 (Class 3 The value of percent of control at 10^−7 M was more than 60% or the value of IC50 was more than 200 nM.)
